Measurements published in the supplement of paper PMC10307832.

Tests used:
Test in all cases: relative viability (nuclei count vs DMSO), 5 days (fraction); higher = more cells survive
COR-L23 = test system: COR-L23
Outline: (§1)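 Lung cancer cell lines in 1536-well plates got either a single drug or a fixed anchor-drug dose together with five library-drug doses (not always all listed) in √10 steps, by pin tool, on the day after seeding. Nuclei were counted after 5 days, and relative viability is the treated-to-vehicle ratio of nuclei counts. Values are medians of duplicate plates.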

NCI-H358 = test system: NCI-H358
Outline: as §1

BEN = test system: BEN
Outline: as §1

NCI-H838 = test system: NCI-H838
Outline: as §1

NCI-H2342 = test system: NCI-H2342
Outline: as §1

LOU-NH91 = test system: LOU-NH91
Outline: as §1

SK-LU-1 = test system: SK-LU-1
Outline: as §1

HCC-366 = test system: HCC-366
Outline: as §1

NCI-H1793 = test system: NCI-H1793
Outline: as §1

NCI-H441 = test system: NCI-H441
Outline: as §1

NCI-H2023 = test system: NCI-H2023
Outline: as §1

Question: With `COc1cc2nccc(Oc3ccc(NC(=O)Nc4cc(C)on4)c(Cl)c3)c2cc1OC` [Tivozanib] + CC(=O)Nc1cccc(-n2c(=O)n(C3CC3)c(=O)c3c(Nc4ccc(I)cc4F)n(C)c(=O)c(C)c32)c1 [Trametinib] (partner 0.02 µM) as the molecule, how does the relative viability (COR-L23; first compound 0.005 µM) read?
Answer: Its relative viability is 0.542.

Question: And the relative viability (COR-L23; first compound 0.01581 µM)?
Answer: The relative viability was 0.577.

Question: What about the relative viability (COR-L23; first compound 0.05 µM) of the same molecule?
Answer: Its relative viability is 0.588.

Question: And the relative viability (COR-L23; first compound 0.1581 µM)?
Answer: The relative viability was 0.421.

Question: And the relative viability (COR-L23; first compound 0.5 µM)?
Answer: The relative viability was 0.545.

Question: And the relative viability (NCI-H358; first compound 0.005 µM)?
Answer: Its relative viability is 0.124.

Question: What about the relative viability (NCI-H358; first compound 0.01581 µM) of the same molecule?
Answer: The relative viability was 0.153.

Question: And the relative viability (NCI-H358; first compound 0.05 µM)?
Answer: The relative viability was 0.161.

Question: What about the relative viability (NCI-H358; first compound 0.1581 µM) of the same molecule?
Answer: Its relative viability is 0.108.

Question: And the relative viability (NCI-H358; first compound 0.5 µM)?
Answer: The relative viability was 0.144.

Question: What about the relative viability (BEN; first compound 0.005 µM) of the same molecule?
Answer: Its relative viability is 1.13.

Question: And the relative viability (BEN; first compound 0.01581 µM)?
Answer: The relative viability was 1.1.

Question: What about the relative viability (BEN; first compound 0.05 µM) of the same molecule?
Answer: The relative viability was 0.961.

Question: What about the relative viability (BEN; first compound 0.1581 µM) of the same molecule?
Answer: The relative viability was 0.903.

Question: What about the relative viability (BEN; first compound 0.5 µM) of the same molecule?
Answer: The relative viability was 1.

Question: And the relative viability (NCI-H838; first compound 0.005 µM)?
Answer: The relative viability was 0.514.

Question: What about the relative viability (NCI-H838; first compound 0.01581 µM) of the same molecule?
Answer: The relative viability was 0.555.

Question: And the relative viability (NCI-H838; first compound 0.05 µM)?
Answer: Its relative viability is 0.552.

Question: What about the relative viability (NCI-H838; first compound 0.1581 µM) of the same molecule?
Answer: The relative viability was 0.34.

Question: And the relative viability (NCI-H838; first compound 0.5 µM)?
Answer: Its relative viability is 0.504.

Question: And the relative viability (NCI-H2342; first compound 0.005 µM)?
Answer: Its relative viability is 0.823.

Question: And the relative viability (NCI-H2342; first compound 0.01581 µM)?
Answer: The relative viability was 0.834.

Question: And the relative viability (NCI-H2342; first compound 0.05 µM)?
Answer: The relative viability was 1.92.

Question: And the relative viability (NCI-H2342; first compound 0.5 µM)?
Answer: Its relative viability is 0.733.

Question: And the relative viability (LOU-NH91; first compound 0.005 µM)?
Answer: Its relative viability is 0.736.

Question: And the relative viability (LOU-NH91; first compound 0.01581 µM)?
Answer: The relative viability was 0.805.

Question: What about the relative viability (LOU-NH91; first compound 0.05 µM) of the same molecule?
Answer: Its relative viability is 0.784.

Question: What about the relative viability (LOU-NH91; first compound 0.1581 µM) of the same molecule?
Answer: Its relative viability is 0.744.

Question: What about the relative viability (LOU-NH91; first compound 0.5 µM) of the same molecule?
Answer: Its relative viability is 0.767.

Question: And the relative viability (SK-LU-1; first compound 0.005 µM)?
Answer: The relative viability was 0.508.

Question: What about the relative viability (SK-LU-1; first compound 0.01581 µM) of the same molecule?
Answer: The relative viability was 0.498.

Question: What about the relative viability (SK-LU-1; first compound 0.05 µM) of the same molecule?
Answer: Its relative viability is 0.594.

Question: And the relative viability (SK-LU-1; first compound 0.1581 µM)?
Answer: The relative viability was 0.3.

Question: And the relative viability (SK-LU-1; first compound 0.5 µM)?
Answer: The relative viability was 0.503.

Question: What about the relative viability (HCC-366; first compound 0.005 µM) of the same molecule?
Answer: The relative viability was 0.363.

Question: What about the relative viability (HCC-366; first compound 0.01581 µM) of the same molecule?
Answer: The relative viability was 0.349.

Question: What about the relative viability (HCC-366; first compound 0.05 µM) of the same molecule?
Answer: The relative viability was 0.341.

Question: What about the relative viability (HCC-366; first compound 0.1581 µM) of the same molecule?
Answer: The relative viability was 0.323.

Question: What about the relative viability (HCC-366; first compound 0.5 µM) of the same molecule?
Answer: Its relative viability is 0.426.

Question: And the relative viability (NCI-H1793; first compound 0.005 µM)?
Answer: Its relative viability is 0.305.

Question: What about the relative viability (NCI-H1793; first compound 0.01581 µM) of the same molecule?
Answer: Its relative viability is 0.457.

Question: And the relative viability (NCI-H1793; first compound 0.05 µM)?
Answer: Its relative viability is 0.471.

Question: What about the relative viability (NCI-H1793; first compound 0.5 µM) of the same molecule?
Answer: Its relative viability is 0.445.

Question: What about the relative viability (NCI-H441; first compound 0.005 µM) of the same molecule?
Answer: The relative viability was 0.405.

Question: What about the relative viability (NCI-H441; first compound 0.01581 µM) of the same molecule?
Answer: Its relative viability is 0.489.

Question: What about the relative viability (NCI-H441; first compound 0.05 µM) of the same molecule?
Answer: Its relative viability is 0.551.

Question: And the relative viability (NCI-H441; first compound 0.1581 µM)?
Answer: The relative viability was 0.367.

Question: And the relative viability (NCI-H441; first compound 0.5 µM)?
Answer: The relative viability was 0.433.

Question: What about the relative viability (NCI-H2023; first compound 0.005 µM) of the same molecule?
Answer: Its relative viability is 0.526.

Question: And the relative viability (NCI-H2023; first compound 0.01581 µM)?
Answer: The relative viability was 0.603.

Question: And the relative viability (NCI-H2023; first compound 0.05 µM)?
Answer: The relative viability was 0.606.
